Reference: paper PMC6792352, “Limited Chemical Structural Diversity Found to Modulate Thyroid Hormone Receptor in the Tox21 Chemical Library” (Environmental Health Perspectives, 2019)
Where a name gives a salt, the structure may show the parent alone. Read-outs that look alike come from different tables or passages of the source.

Key:
[1] = test system: GH3-TRE-Luc cell line; conditions: read-out: AC50 (uM) modified / 1000, viability, 1 nM T3 present, 24 h
[2] = in vitro; conditions: rat, gh3-tre-luc cells

Work on O=C1OC2(c3ccccc31)c1cc(Br)c(O)c(Br)c1Oc1c2cc(Br)c(O)c1Br [Eosin] yielded a CC50 ([1]; Tox21_110001=Tox21_112323) of 9.05 µM and a CC50 ([1]; Tox21_110001=Tox21_302152) of 8.28 µM.
Work on CCCCCCCCCCCCn1cc[n+](C)c1 [1-Dodecyl-3-methylimidazolium bromide] yielded a CC50 ([1]; Tox21_110001=Tox21_202628) of 80.1 µM.
C[C@H](Cc1ccc(O)c(O)c1)[C@@H](C)Cc1ccc(O)c(O)c1 [Masoprocol] showed a CC50 ([1]; Tox21_110001=Tox21_110210) of 9.04 µM.
Work on CN(C)c1ccc2nc3ccc(=[N+](C)C)cc-3sc2c1 [Methylene blue] yielded a CC50 ([1]; Tox21_110001=Tox21_112497) of 21.1 µM and a CC50 ([1]; Tox21_110001=Tox21_302087) of 45.4 µM.
For NC[C@H]1O[C@H](O[C@H]2[C@H](O)[C@@H](O[C@H]3O[C@H](CO)[C@@H](O)[C@H](N)[C@H]3O)[C@H](N)C[C@@H]2N)[C@H](O)[C@@H](O)[C@@H]1O [Kanamycin A sulfate], the CC50 ([1]; Tox21_110001=Tox21_202817) was 3.08 µM.
For COC(=O)[C@H]1[C@H]2C[C@@H]3c4[nH]c5ccccc5c4CCN3C[C@H]2C[C@@H](OC(=O)c2cc(OC)c(OC)c(OC)c2)[C@@H]1OC [Deserpidine], the CC50 ([1]; Tox21_110001=Tox21_112646) was 1.94 µM and the CC50 ([1]; Tox21_110001=Tox21_113102) was 27.7 µM.
CN(C)c1ccc(C(=O)c2ccc(N(C)C)cc2)cc1 [Michler's ketone] gave a CC50 ([1]; Tox21_110001=Tox21_202416) of 2.74 µM.
With CCCCCCCCCCn1cc[n+](C)c1 [1-Decyl-3-methylimidazolium chloride] the CC50 ([1]; Tox21_110001=Tox21_202623) was 22.3 µM.
For COc1cc2c(c(OC)c1OC)-c1c(cc3c(c1OC)OCO3)C[C@H](C)[C@](C)(O)C2 [Gomisin A], the CC50 ([1]; Tox21_110001=Tox21_113433) was 22.9 µM.
In the case of CN(C)CCC=C1c2ccccc2CCc2ccccc21 [Amitriptyline hydrochloride], the CC50 ([1]; Tox21_110001=Tox21_113122) is reported as 18.1 µM, the CC50 ([1]; Tox21_110001=Tox21_201278) is reported as 8.86 µM and the CC50 ([1]; Tox21_110001=Tox21_303612) is reported as 13.7 µM.
For Nc1ccccc1N [1,2-Phenylenediamine], the CC50 ([1]; Tox21_110001=Tox21_400014) was 73.8 µM.
With Clc1ccc(COC(Cn2ccnc2)c2ccc(Cl)cc2Cl)cc1 (centres unmarked) [Econazole nitrate] the CC50 ([1]; Tox21_110001=Tox21_110852) was 13.9 µM, the CC50 ([1]; Tox21_110001=Tox21_200771) was 23.8 µM and the CC50 ([1]; Tox21_110001=Tox21_303391) was 29.6 µM.
For Nc1ccn([C@@H]2O[C@H](CO)[C@@H](O)[C@@H]2O)c(=O)n1 [Cytarabine hydrochloride], the CC50 ([1]; Tox21_110001=Tox21_300488) was 0.11 µM.
NC(=O)c1ncn([C@@H]2O[C@H](CO)[C@@H](O)[C@H]2O)n1 [Ribavirin] showed a CC50 ([1]; Tox21_110001=Tox21_110259) of 40.1 µM.
Compound C=C[C@H]1C[N@@]2CC[C@H]1C[C@H]2[C@H](O)c1ccnc2ccc(OC)cc12 [Quinine] has a CC50 ([1]; Tox21_110001=Tox21_112389) of 42.9 µM.
Compound [H]/N=C(\N/C(=N/[H])NCCCCCCNC(=N)NC(=N)Nc1ccc(Cl)cc1)Nc1ccc(Cl)cc1 [Chlorhexidine dihydrochloride] has a CC50 ([1]; Tox21_110001=Tox21_302689) of 5.24 µM.
Work on COc1cc([C@@H]2c3cc4c(cc3[C@@H](O[C@@H]3O[C@@H]5CO[C@@H](C)O[C@H]5[C@H](O)[C@H]3O)[C@H]3COC(=O)[C@H]23)OCO4)cc(OC)c1O [Etoposide] yielded a CC50 ([1]; Tox21_110001=Tox21_110630) of 6.45 µM and a CC50 ([1]; Tox21_110001=Tox21_302201) of 2.85 µM.
With CCCCCCCCCCCCCC[P+](CCCCCC)(CCCCCC)CCCCCC [Trihexyltetradecylphosphonium dicyanamide] the CC50 ([1]; Tox21_110001=Tox21_202613) was 2.76 µM.
Compound CCCCCCCCCCn1cc[n+](C)c1 [1-Decyl-3-methylimidazolium hexafluorophosphate] has a CC50 ([1]; Tox21_110001=Tox21_202624) of 11.4 µM.
Compound CCCCNC(=O)OCC#CI [3-Iodo-2-propynyl-N-butylcarbamate] has a CC50 ([1]; Tox21_110001=Tox21_201864) of 15.9 µM and a CC50 ([1]; Tox21_110001=Tox21_301117) of 4.22 µM.
COc1ccc(CCN2CCC(Nc3nc4ccccc4n3Cc3ccc(F)cc3)CC2)cc1 [Astemizole] gave a CC50 ([1]; Tox21_110001=Tox21_110680) of 4.42 µM and a CC50 ([1]; Tox21_110001=Tox21_200095) of 0.889 µM.
CCCCCCCC[n+]1ccn(C)c1 [1-Methyl-3-octylimidazolium bromide] gave a CC50 ([1]; Tox21_110001=Tox21_202653) of 31.6 µM.
CN(C)c1ccc(C(=C2C=CC(=[N+](C)C)C=C2)c2ccccc2)cc1 [Malachite green oxalate] showed a CC50 ([1]; Tox21_110001=Tox21_110008) of 5.84 µM and a CC50 ([1]; Tox21_110001=Tox21_202521) of 0.0943 µM.
Compound CC#C[C@]1(O)CC[C@H]2[C@@H]3CCC4=CC(=O)CCC4=C3[C@@H](c3ccc(N(C)C)cc3)C[C@@]21C [Mifepristone] has a CC50 ([1]; Tox21_110001=Tox21_110952) of 9.81 µM and a CC50 ([1]; Tox21_110001=Tox21_301841) of 36.7 µM.
Compound CCc1nn(CCCN2CCN(c3cccc(Cl)c3)CC2)c(=O)n1CCOc1ccccc1 [Nefazodone hydrochloride] has a CC50 ([1]; Tox21_110001=Tox21_111735) of 9.43 µM and a CC50 ([1]; Tox21_110001=Tox21_113574) of 23.6 µM.
For COc1ccc(CN(CCN(C)C)c2ccccn2)cc1 [Pyrilamine], the CC50 ([1]; Tox21_110001=Tox21_200978) was 39.2 µM.
With O=c1c(-c2ccc(O)cc2)coc2cc(O)cc(O)c12 [Genistein] the CC50 ([1]; Tox21_110001=Tox21_110161) was 24.6 µM, the CC50 ([1]; Tox21_110001=Tox21_201428) was 38.3 µM and the CC50 ([1]; Tox21_110001=Tox21_300585) was 57.7 µM.
In the case of CC(C)CCCCCCCOC(=O)c1ccccc1C(=O)OCCCCCCCC(C)C [Diisodecyl phthalate], the CC50 at 24 h ([2]; AC50 (uM) modified / 1000) is reported as over 90 µM.
CC(=O)OCC(=O)NCCCOc1cccc(CN2CCCCC2)c1 [Roxatidine acetate hydrochloride] gave a CC50 at 24 h ([2]; AC50 (uM) modified / 1000) of over 50 µM.
In the case of COC(=O)COc1ccc(Cl)cc1Cl [2,4-D-methyl], the CC50 at 24 h ([2]; AC50 (uM) modified / 1000) is reported as over 90 µM.
CCCCCCC(=O)c1ccccc1 [Heptanophenone] showed a CC50 at 24 h ([2]; AC50 (uM) modified / 1000) of over 90 µM.
Compound C[C@H](N)[C@H](O)c1ccc(O)c(O)c1 [Levonordefrin] has a CC50 at 24 h ([2]; AC50 (uM) modified / 1000, Tox21_110001=Tox21_112051, viability, 1 nM T3 present, 24 h) of 22 µM.
Work on CC(=N)S [Thioacetamide] yielded a CC50 at 24 h ([2]; AC50 (uM) modified / 1000) of over 90 µM.
Cc1nc([N+](=O)[O-])cn1-c1ccc([N+](=O)[O-])cc1 [Nitrefazole] showed a CC50 at 24 h ([2]; AC50 (uM) modified / 1000) of over 50 µM.
Work on Nc1ccc2c3c(cccc13)-c1ccccc1-2 [3-Aminofluoranthene] yielded a CC50 at 24 h ([2]; AC50 (uM) modified / 1000) of over 90 µM.
In the case of CC/C=C\CCOC(C)=O [(3Z)-3-Hexenyl acetate], the CC50 at 24 h ([2]; AC50 (uM) modified / 1000) is reported as over 90 µM.
In the case of C[C@H]1C[C@H]2[C@@H]3CCC4=CC(=O)C=C[C@]4(C)[C@H]3C(=O)C[C@]2(C)[C@@]1(O)C(=O)CO [Meprednisone], the CC50 at 24 h ([2]; AC50 (uM) modified / 1000) is reported as over 50 µM.
CCCCCC(=O)CC [3-Octanone] gave a CC50 at 24 h ([2]; AC50 (uM) modified / 1000) of over 90 µM.
Compound CCOc1ccccc1OCCN[C@H](C)Cc1ccc(OC)c(S(N)(=O)=O)c1 [Tamsulosin hydrochloride] has a CC50 at 24 h ([2]; AC50 (uM) modified / 1000) of over 50 µM.
In the case of Nc1ccc2cc(S(=O)(=O)O)cc(O)c2c1N=Nc1ccccc1C(F)(F)F [Acid Red 337], the CC50 at 24 h ([2]; AC50 (uM) modified / 1000) is reported as 89.3 µM.
For CCCCCCCCS [1-Octanethiol], the CC50 at 24 h ([2]; AC50 (uM) modified / 1000) was over 90 µM.
